Legend:
[1] = system: SARS-CoV-2 (SARS-CoV-2/human/TWN/CGMH-CGU-01/2020); format: cell-based
[2] = system: lysozyme-coated Pd-NTF electrodes; assay: Binding selectivity of S-protein to lysozyme-coated Pd-NTF electrode (EIS); details: presence of peptide analogue
Source text: (iii) lysozyme-coated Pd-electrode in the absence of peptide analogues; or […]

[3] = biological target: T1, SARS-CoV-2 S-protein-ACE2 binding (Homo sapiens, UniProt Q9BYF1, K631R); assay: EIS-based biosensing platform (ACE2-Pd-NTFE): modulation of S-protein-ACE2 binding; design: species or system SARS-CoV-2; human; details: for suppression of S-protein-ACE2 interaction / maximum binding efficacy / ECmax S-protein (S-protein-ACE2 interaction at maximum S-protein concentration): 4 μg/mL ACEi; for suppression of S-protein-ACE2 interaction / maximum binding efficacy: at maximum S-protein concentration; for ECmax S-protein (S-protein-ACE2 interaction at maximum S-protein concentration): baseline 99.5%±11.0% (104.2%±4.8% for ramiprilat); for modulation effect on the S-protein-ACE2 binding: dose-dependent, 0.1 to 4 μg/mL
T1 construct: made in house

[4] = Binding selectivity of S-protein to plain Pd-NTF electrode (EIS); details: presence of peptide analogue

Compound | E gene RNA in the media increased by [1] | effect on binding patterns of S-protein to the lysozyme-coated Pd-NTF electrode [2] | suppression of S-protein-ACE2 interaction / maximum binding efficacy [3] | ECmax S-protein (S-protein-ACE2 interaction at maximum S-protein concentration) [3] | modulation effect on the S-protein-ACE2 binding [3] | E gene RNA copies in the culture media reduced by [1] | effect on binding patterns of S-protein to the bare Pd-NTF electrode [4] | effect on S-protein-ACE2 binding at highest dose ([3]; 4 μg/mL)
C[C@H](CS)C(=O)N1CCC[C@H]1C(=O)O [captopril] | 34.5% | – | – | – | – | – | – | –
CCOC(=O)[C@H](CCc1ccccc1)N[C@@H](C)C(=O)N1CCC[C@H]1C(=O)O [enalapril] | 93.7% | – | – | – | – | – | – | –
C[C@H](N[C@@H](CCc1ccccc1)C(=O)O)C(=O)N1CCC[C@H]1C(=O)O [enalaprilat] | 44.4% | – | – | – | – | – | – | –
NCCCC[C@H](N[C@@H](CCc1ccccc1)C(=O)O)C(=O)N1CCC[C@H]1C(=O)O [lisinopril] | 54.2% | did not change the binding patterns | – | – | – | – | – | –
CCC[C@H](N[C@@H](C)C(=O)N1[C@H](C(=O)O)C[C@@H]2CCCC[C@@H]21)C(=O)OCC [perindopril] | – | – | approximately 48% | 51.9±5.3% | dose-dependent and non-competitive inhibition | approximately 18.8% | – | –
CCC[C@H](N[C@@H](C)C(=O)N1[C@H](C(=O)O)C[C@@H]2CCCC[C@@H]21)C(=O)O [perindoprilat] | – | did not change the binding patterns | 67% | 33.0±3.7% | antagonism effect is significantly enhanced | ~20.1% | did not change the binding patterns | –
CCOC(=O)[C@H](CCc1ccccc1)N[C@@H](C)C(=O)N1[C@H](C(=O)O)C[C@@H]2CCC[C@@H]21 [ramipril] | – | – | approximately 42% | 57.1±11.4% | dose-dependent and non-competitive inhibition | 39.3% | – | –
C[C@H](N[C@@H](CCc1ccccc1)C(=O)O)C(=O)N1[C@H](C(=O)O)C[C@@H]2CCC[C@@H]21 [ramiprilat] | – | – | 72% | 27.6±7.5% | antagonism effect is significantly enhanced | 36.4% | – | Near full inhibition

Reference: patent US12201613B2 (priority 2020, dated 2025)
